The results in this text go back to patent publication EP1212309B1, “CASPASE INHIBITOR” (LG Chem Investment, Ltd., priority 1999, dated 2001).

The target of one assay is T1, caspase-1 (Homo sapiens, UniProt P29466).
T1 construct: made in house
T1 sequence (P29466 120-297 limits assumed): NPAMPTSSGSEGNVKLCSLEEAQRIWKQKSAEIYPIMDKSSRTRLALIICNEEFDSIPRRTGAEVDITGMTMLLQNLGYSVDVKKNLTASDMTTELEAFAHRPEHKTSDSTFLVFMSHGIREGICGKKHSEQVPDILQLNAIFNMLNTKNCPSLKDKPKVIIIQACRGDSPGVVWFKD
T1 sequence (P29466 317-404 limits assumed): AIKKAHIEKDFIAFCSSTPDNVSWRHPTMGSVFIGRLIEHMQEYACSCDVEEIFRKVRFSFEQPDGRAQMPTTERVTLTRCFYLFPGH
Kind of assay: Screening on caspases inhibiting activity (recombinant enzyme, fluorogenic AMC substrate). In kind it is biochemical. The settings on record: Irreversible Inhibitors; read-out: Kobs/[I] for caspase-1. The protocol: (§1) In the present experiment, recombinant caspases were purified from a transformed bacterium after human caspase genes were cloned into the expression vector pET, and then used in the experiment (Thornberry, N.A. et .al. Nature, 1992, 356, 768. Thombeny, N.A. Methods in Enzymology, 1994, 615.).
(§2) Enzymatic activity was measured by a known procedure (Walker N.P.C. et al., Cell 1994, 78, 343). Briefly, 10 ng of recombinant protein was mixed with 50 mM Tris(pH 7.0), 1mM DTT, 0.5 mM EDTA, 10% Glycerol buffer containing 1∼100 µM of enzyme substrate, Ac-YVAD-AMC or Ac-DEVD-AMC and then the changes by isolated AMC at 37°C were recorded. The inhibitory activity for caspases was calculated from the early enzyme reaction rate by measuring the changes with fluorescence excited at […] and emitted at 460 nm (Range; Ki<100nM).

The next assay has as its target T2, caspase-3 (Homo sapiens, UniProt P42574).
T2 construct: made in house
T2 sequence (P42574 29-175 limits assumed): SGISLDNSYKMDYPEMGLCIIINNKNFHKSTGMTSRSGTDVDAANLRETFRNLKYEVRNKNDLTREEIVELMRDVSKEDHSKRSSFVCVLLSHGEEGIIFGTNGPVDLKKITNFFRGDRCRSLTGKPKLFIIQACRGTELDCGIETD
T2 sequence (P42574 176-277 limits assumed): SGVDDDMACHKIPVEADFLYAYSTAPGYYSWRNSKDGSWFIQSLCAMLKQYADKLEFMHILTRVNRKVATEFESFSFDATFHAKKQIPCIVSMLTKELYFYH
The assay is described as above. In kind it is biochemical. The settings on record: Irreversible Inhibitors; read-out: Kobs/[I] for caspase-3. The protocol:
as §1, §2

The subject of another assay is Jurkat T cell. Kind of assay: MTT assay of cell death induced by Anti-FAS antibody CH11. In kind it is cell-based. The settings on record: Homo sapiens; Jurkat T cell treated with Anti-FAS antibody CH11, MTT; read-out: ED50 FAS Induced cell death. Background: Formazan colour is commonly taken as a measure of viable cells.
In assay [1] the test system is anti-Fas antibody-induced liver apoptosis. Kind of assay: Anti-Fas antibody (Jo2)-induced liver apoptosis and lethality in mice. In kind it is in vivo, C57BL/6 female mice. The protocol:
[…] C57BL/6 female mice(18-20 g) were injected i.p. with compound 33MP dissolved in vehicle which consists of olive oil and 10% DMSO, or vehicle alone, at 1 hr before i.v. injection with 10 µg of Anti-Fas antibody (Jo2). Following 4 hrs of i.v. injection with Jo2 antibody, animals were placed under inhaled isoflurane anesthesia for blood collection and liver isolation. Mice were also i.p. injected with 0.2 µg/20 g of TNFα and 12 mg/20 g of D-galactosamine(TNFα /GalN) and compound 33MP or its salt form (Compound 33MP-Na). 8 hrs later, blood and liver tissues were isolated from anesthetized animals. The liver tissues were snap-frozen and stored at -80° C until use. Plasma was isolated from blood by centrifugation at 12,000 x g for 10 min at 4° C and stored at -80° C. In some experiments for animal mortality, mice were i.p. injected with TNFα /GalN and caspase inhibitor was injected 1 hr before, simultaneously, 2 hrs, or 4 hrs after TNFα /GalN injection.
Whole tissues (0.5 g) were homogenated in ice-cold lysis buffer (5 mM Tris, 20 mM EDTA, 0.5% Triton-X 100, pH8.0). The lysate was centrifuged at 12,000 x g for 20 min at 4° C. The supernatant was obtained and extracted twice with a mixture of phenol and chloroform. One-tenth volume of 3 M sodium acetate was added to the solution, and DNA was precipitated by adding an equal volume of isopropanol. After storing at -20° C overnight, a DNA pellet was obtained by centrifugation at 12,000 x g for 15 min. at 4 ° C and washed twice with 75% ethanol. The pellet was dried and resuspended in 100 µl of 20 mM Tris-HCl, pH 8.0. After digesting RNA with DNase-free RNase (0.1 mg/ml) at 37 ° C for 1 hr, samples […] were electrophoresed through a 1.2% agarose gel in […] Tris borate + EDTA (TBE), pH 8.0 buffer. DNA was photographed under visualized with UV light.
Liver tissues were homogenated in 10 mM HEPES buffer containing protease inhibitors (5 µg/ml aprotinin, 5 µg/ml pepstatin A, 10 µg/ml leupeptin, and 0.5 mM PMSF) and lysed by three freeze/thaw cycles. The cytosolic fraction was obtained by centrifugation at 12,000 x g for 20 min. at 4" C. Protein concentration was determined with BCA protein assay reagent (pierce, Rockford, IL). Cytosol containing 200 µg protein was combined in 96-well plate with […] of synthetic substrate Ac-DEVD-pNA in 150 µl of 100 mM HEPES, pH 7.4, containing the protease inhibitors, and the reaction was conducted for 1 hr at 37° C. […] Plasma level of aspartate aminotransferase (AST) was analyzed by spectrophotometry using each enzyme assay kit (Sigma).

The test system of assay [2] is TNFα -mediated liver toxicity. Kind of assay: TNFα-mediated liver toxicity and mortality in mice. In kind it is in vivo, C57BL/6 female mice.
[3] abbreviates: mice treated with TNFα /ActD (so in the source).

For `CC(C)[C@H](NC(=O)c1cccc2ccccc12)C1=NOC(Cc2ccccc2)(C(=O)N[C@@H](CC(=O)O)C(=O)COC(=O)c2c(Cl)cccc2Cl)C1` (stereo partly drawn) [Compound 33mp, (3S)-3-{3-[2-methyl-(1S)-1-(1-naphthalenecarbonylamino)-propyl]-5-phenylmethyl-4,5-dihydro-isoxazole-5-carbonylamino}-4-keto-5-(2,6-dichlorobenzoyloxy)-pentanoic acid], the kinact/KI on caspase-1 came to 807000 M⁻¹ s⁻¹. The kinact/KI at caspase-3 was found to be 500 M⁻¹ s⁻¹. The EC50 in the assay with Jurkat T cell was 1 to 10 µM. Also, in assay [1] (0.4 mg/20 g, 1 mg/20 g i.p. 1 hr before anti-Fas antibody, 4 hrs after antibody), the “liver apoptosis as determined by DNA fragmentation” value is “suppressed the liver apoptosis in a dose-dependent manner”. The “release of liver enzyme AST” value in assay [1] (anti-Fas antibody-treated mice) is listed as “significantly suppressed”. Further, in assay [1] (anti-Fas antibody-treated mice (85% died within 24 hrs without treatment)), the reduction of mortality result is recorded as “about 30%”. Also, in assay [1] (anti-Fas antibody-treated mice, Ac-DEVD-pNA), the “caspase-3-like activity in liver tissues” value was “abrogated”. In addition, the animals survived in assay [2] (TNFα /ActD-mediated mouse mortality, within 24 hrs) is listed as 80%. Further, in assay [2] (setting [3]), the “DNA fragmentation in liver tissues” value was “significantly reduced”, the “caspase-3-like activity in liver” value is “suppressed” and the “release of AST” value is “suppressed”.
